Consider one compound from patent US10662228B2 (priority 2014, dated 2020).

For this assay, the system named is potassium ion channel current of the DRG neurons. Format: cell-based, SD rats. Particulars: 5 mM.

Take `Nc1ccncc1` [4AP, 4-aminopyridine]: the Current inhibition rate was determined as 0.338 and the “Current recorded after loading” value stood at 0.9766 nA.
